The target in the test is T1, human Nav1.7 channels (Homo sapiens, UniProt Q15858).
T1 construct: expressed in transfected cells; host or cells: CHO
Nature of the test: FRET assay, human Nav1.7 (EFS on FDSS). It counts as cell-based. Conditions: CHO cells expressing human Nav1.7, read-out: IC50 against Nav1.7. As for the experimental part:
The inhibitory activities of compounds against voltage gated sodium channels are determined by methodology well known in the art.
The ability of the aryl substituted carboxamide derivatives of the formula (I) to inhibit the NaV1.3, Nav1.7 and Nav1.5 channels is measured by Fluorescence Resonance Energy Transfer (FRET) assay and electrophysiology assay described below.
This screen is used to determine the effects of compounds on human Nav1.3, human Nav1.7, and human Nav1.5 channels, utilising electrical field stimulation (EFS) system in 96-well plate format on FDSS (Hamamatsu Photonics) platform. The change of membrane potential is monitored with FRET dye pair, oxonol (DiSBAC2(3)) and coumarin (CC2-DMPE).
CHO cells expressing human Nav1.7 channels are grown in T225 flasks, in a 5% CO2 humidified incubator to about 80% confluence. Media composition consists of HAM/F12 with Glutamax 1.10% FCS, 100 units/mL Penicillin and 100 microgram/mL Hygromycin.
Protocol: • Seed each cell lines (1×10^5 cells/well) into poly-D-lysine coated 96-well plates prior to experimentation. • Incubate at 37° C. in 5% CO2 for 24 hours. • Wash each well with assay buffer (140 mM NaCl, 4.5 mM KCl, 10 mM D-Glucose, 2 mM CaCl2, 1 mM MgCl2, 10 mM HEPES, pH 7.4 adjusted with NaOH) twice. • Add 1st loading solution containing 10 microM CC2-DMPE and 0.06% Pluronic F-127 in assay buffer. • Incubate the plate at room temperature in dark for 1 hour. • Remove 1st loading solution and added 2nd loading solution containing 15 microM DiSBAC2(3), 0.555 mM VABSC-1 and 0.004% Pluronic F-127 in assay buffer. • Place the plate under the dark at room temperature for 25 minutes. • Add compound solutions into the assay plate. • Set the assay plate in FDSS and placed an EFS device on the plate. • Measure EFS-induced fluorescent response by FDSS.
The data are analyzed and reported as normalized ratios of intensities measured at […]. The process of calculating these ratios is performed as follows:
This analysis is performed using a computerized specific program designed for FDSS generated data. Fluorescence ratio values are plotted using XLfit to determine an IC50 value for each compound.

What is called IC50 is the point on the concentration scale where inhibition reaches its midpoint.

T1 sequence (Q15858 whole entry): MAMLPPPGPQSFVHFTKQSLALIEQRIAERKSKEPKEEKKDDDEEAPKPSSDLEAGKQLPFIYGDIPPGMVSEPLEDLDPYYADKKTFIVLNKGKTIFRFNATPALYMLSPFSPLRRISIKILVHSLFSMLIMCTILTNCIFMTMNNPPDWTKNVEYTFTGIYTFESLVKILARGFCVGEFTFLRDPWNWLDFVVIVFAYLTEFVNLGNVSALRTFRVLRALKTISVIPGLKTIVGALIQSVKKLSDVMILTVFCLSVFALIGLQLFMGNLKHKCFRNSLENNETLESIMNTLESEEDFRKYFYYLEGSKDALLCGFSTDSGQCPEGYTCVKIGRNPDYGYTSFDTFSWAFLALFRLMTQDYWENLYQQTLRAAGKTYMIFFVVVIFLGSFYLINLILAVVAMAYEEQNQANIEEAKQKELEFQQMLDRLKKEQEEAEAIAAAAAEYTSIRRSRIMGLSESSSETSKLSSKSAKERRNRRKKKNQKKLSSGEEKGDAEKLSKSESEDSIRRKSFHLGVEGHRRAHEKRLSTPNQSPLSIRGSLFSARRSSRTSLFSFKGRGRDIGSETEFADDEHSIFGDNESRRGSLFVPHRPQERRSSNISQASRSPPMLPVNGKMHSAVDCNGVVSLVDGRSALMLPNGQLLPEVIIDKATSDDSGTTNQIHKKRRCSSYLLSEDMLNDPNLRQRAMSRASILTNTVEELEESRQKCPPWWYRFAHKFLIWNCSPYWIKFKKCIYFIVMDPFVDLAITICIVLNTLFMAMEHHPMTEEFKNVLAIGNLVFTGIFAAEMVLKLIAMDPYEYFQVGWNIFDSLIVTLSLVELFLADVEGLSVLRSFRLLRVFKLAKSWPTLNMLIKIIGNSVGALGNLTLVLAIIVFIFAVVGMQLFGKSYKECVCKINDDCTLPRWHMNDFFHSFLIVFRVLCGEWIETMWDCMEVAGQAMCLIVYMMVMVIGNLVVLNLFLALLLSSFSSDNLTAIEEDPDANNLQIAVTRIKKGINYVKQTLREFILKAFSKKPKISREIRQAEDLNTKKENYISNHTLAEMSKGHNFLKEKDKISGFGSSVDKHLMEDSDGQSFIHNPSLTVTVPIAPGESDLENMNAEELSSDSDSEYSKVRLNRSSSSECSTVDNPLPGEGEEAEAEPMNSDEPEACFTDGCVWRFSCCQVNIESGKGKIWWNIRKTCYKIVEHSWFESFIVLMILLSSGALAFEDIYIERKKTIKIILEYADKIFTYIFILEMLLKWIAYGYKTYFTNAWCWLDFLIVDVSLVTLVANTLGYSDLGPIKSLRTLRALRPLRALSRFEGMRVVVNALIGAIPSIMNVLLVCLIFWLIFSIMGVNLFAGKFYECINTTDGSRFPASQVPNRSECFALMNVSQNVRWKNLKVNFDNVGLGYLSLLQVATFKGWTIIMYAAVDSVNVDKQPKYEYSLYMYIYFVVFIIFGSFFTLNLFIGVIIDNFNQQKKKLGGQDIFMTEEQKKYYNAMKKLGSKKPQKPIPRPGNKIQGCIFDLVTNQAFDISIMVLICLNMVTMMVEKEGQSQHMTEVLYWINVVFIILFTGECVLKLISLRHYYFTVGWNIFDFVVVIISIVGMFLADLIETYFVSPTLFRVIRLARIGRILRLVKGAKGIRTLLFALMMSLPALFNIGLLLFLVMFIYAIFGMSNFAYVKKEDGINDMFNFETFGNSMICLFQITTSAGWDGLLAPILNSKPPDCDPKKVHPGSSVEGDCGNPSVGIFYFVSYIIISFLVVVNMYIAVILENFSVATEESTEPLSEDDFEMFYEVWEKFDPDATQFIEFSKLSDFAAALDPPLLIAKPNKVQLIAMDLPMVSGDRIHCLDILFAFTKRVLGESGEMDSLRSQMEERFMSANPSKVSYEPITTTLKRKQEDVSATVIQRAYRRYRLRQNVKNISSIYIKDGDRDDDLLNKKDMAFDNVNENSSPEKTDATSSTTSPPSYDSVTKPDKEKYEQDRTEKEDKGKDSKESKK

With `CC(=O)Nc1cc(C(=O)N[C@H](C)c2cccc(C(F)(F)F)c2)ccn1` (single isomer, unassigned) [Example 7], the IC50 is under 1000 nM. As for `CC(NC(=O)c1ccnc(NC(=O)C2CC2)c1)c1ccc(OCC(F)(F)F)nc1` (single isomer, unassigned) [Example 9, 2-(cyclopropanecarboxamido)-N-(1-(6-(2,2,2-trifluoroethoxy)pyridin-3-yl)ethyl)isonicotinamide], the IC50 was under 1000 nM.

With `CCC(=O)Nc1cc(C(=O)NC(C)c2ccc(OCC(F)(F)F)nc2)ccn1` (single isomer, unassigned) [Example 11, 2-propionamido-N-(1-(6-(2,2,2-trifluoroethoxy)pyridin-3-yl)ethyl)isonicotinamide], the concentration for half-maximal inhibition (IC50) was under 1000 nM. The same measure for `CCCC(=O)Nc1cc(C(=O)NC(C)c2ccc(OCC(F)(F)F)nc2)ccn1` (single isomer, unassigned) [Example 40, 2-butyramido-N-(1-(6-(2,2,2-trifluoroethoxy)pyridin-3-yl)ethyl)isonicotinamide]: under 1000 nM. In the case of `CC(=O)Nc1cc(C(=O)NC(C)c2cnc(OCC(F)(F)F)c(Cl)c2)ccn1` (single isomer, unassigned) [Example 52, 2-acetamido-N-(1-(5-chloro-6-(2,2,2-trifluoroethoxy)pyridin-3-yl)ethyl)isonicotinamide], the IC50 was under 1000 nM. The same measure for `CCC(=O)Nc1cc(C(=O)NC(C)c2ccc(OCC(F)(F)F)nc2)cc(C)n1` (single isomer, unassigned) [Example 60, 2-methyl-6-propionamido-N-(1-(6-(2,2,2-trifluoroethoxy)pyridin-3-yl)ethyl)isonicotinamide]: under 1000 nM; for `Cc1cc(C(=O)NC(C)c2ccc(OCC(F)(F)F)nc2)cc(NC(=O)C2CC2)n1` (single isomer, unassigned) [Example 61, 2-(cyclopropanecarboxamido)-6-methyl-N-(1-(6-(2,2,2-trifluoroethoxy)pyridin-3-yl)ethyl)isonicotinamide]: under 1000 nM; for `CC(=O)Nc1cc(C(=O)NC(C)c2cc(C)nc(OCC(F)(F)F)c2)ccn1` (single isomer, unassigned) [Example 73, 2-acetamido-N-(1-(2-methyl-6-(2,2,2-trifluoroethoxy)pyridin-4-yl)ethyl)isonicotinamide]: under 1000 nM. For `CCC(=O)Nc1cc(C(=O)NC(C)c2cnc(OCC(F)(F)F)c(F)c2)ccn1` (single isomer, unassigned) [Example 74, N-(1-(5-fluoro-6-(2,2,2-trifluoroethoxy)pyridin-3-yl)ethyl)-2-propionamidoisonicotinamide], the concentration for half-maximal inhibition (IC50) is under 1000 nM. `CC(NC(=O)c1ccnc(NC(=O)C2CC2)c1)c1cnc(OCC(F)(F)F)c(Cl)c1` (single isomer, unassigned) [Example 79, N-(1-(5-chloro-6-(2,2,2-trifluoroethoxy)pyridin-3-yl)ethyl)-2-(cyclopropanecarboxamido)isonicotinamide]: the IC50 was under 1000 nM. Consider `CC(=O)Nc1cc(C(=O)NC(C)c2cccc(OCC(F)(F)F)c2)ccn1` (single isomer, unassigned) [Example 84, 2-acetamido-N-(1-(3-(2,2,2-trifluoroethoxy)phenyl)ethyl)isonicotinamide], for which the IC50 was under 1000 nM. As for `CCC(=O)Nc1cc(C(=O)NC(C)c2ccc(OCCC(F)(F)F)nc2)ccn1` (single isomer, unassigned) [Example 115, 2-propionamido-N-(1-(6-(3,3,3-trifluoropropoxy)pyridin-3-yl)ethyl)isonicotinamide], the IC50 was under 1000 nM. `CC(NC(=O)c1ccnc(NC(=O)C2CC2)c1)c1ccc(OCCC(F)(F)F)nc1` (single isomer, unassigned) [Example 116, 2-(cyclopropanecarboxamido)-N-(1-(6-(3,3,3-trifluoropropoxy)pyridin-3-yl)ethyl)isonicotinamide]: the IC50 was under 1000 nM. `CCC(=O)Nc1cc(C(=O)NC(C)c2cnc(OCC(F)(F)F)c(F)c2)cc(C)n1` (single isomer, unassigned) [Example 131, N-(1-(5-fluoro-6-(2,2,2-trifluoroethoxy)pyridin-3-yl)ethyl)-2-methyl-6-propionamidoisonicotinamide]: the half-inhibitory concentration (IC50) is under 1000 nM. In the case of `CCC(=O)Nc1cc(C(=O)NC(CC)c2ccc(OCC(F)(F)F)nc2)cc(C)n1` (single isomer, unassigned) [Example 133, 2-methyl-6-propionamido-N-(1-(6-(2,2,2-trifluoroethoxy)pyridin-3-yl)propyl)isonicotinamide], the 50% inhibitory concentration (IC50) was under 1000 nM. Turning to `CCC(=O)Nc1cc(C(=O)NC(C)c2ccc(OC(F)(F)F)cc2)cc(C)n1` (single isomer, unassigned) [Example 135, 2-methyl-6-propionamido-N-(1-(4-(trifluoromethoxy)phenyl)ethyl)isonicotinamide], the concentration for half-maximal inhibition (IC50) was under 1000 nM. For the compound `CCC(=O)Nc1cc(C(=O)NC(C)c2ccc(OCCC(F)(F)F)nc2)cc(C)n1` (single isomer, unassigned) [Example 140, 2-methyl-6-propionamido-N-(1-(6-(3,3,3-trifluoropropoxy)pyridin-3-yl)ethyl)isonicotinamide], the IC50 is under 1000 nM. On to `CCC(=O)Nc1cc(C(=O)NC(C)c2cnc(OCC(F)(F)F)c(OC)c2)ccn1` (single isomer, unassigned) [Example 142], for which the IC50 is under 1000 nM. Under `COc1cc(C(C)NC(=O)c2ccnc(NC(=O)C3CC3)c2)cnc1OCC(F)(F)F` (single isomer, unassigned) [Example 143, 2-(cyclopropanecarboxamido)-N-(1-(5-methoxy-6-(2,2,2-trifluoroethoxy)pyridin-3-yl)ethyl)isonicotinamide] stands under 1000 nM; under `CCC(=O)Nc1cc(C(=O)NC(C)c2cnc(OCC(F)(F)F)c(OC)c2)cc(C)n1` (single isomer, unassigned) [Example 144, N-(1-(5-methoxy-6-(2,2,2-trifluoroethoxy)pyridin-3-yl)ethyl)-2-methyl-6-propionamidoisonicotinamide], under 1000 nM. Under `CC(C)C(=O)Nc1cc(C(=O)NC(C)c2ccc(OCCC(F)(F)F)nc2)ccn1` (single isomer, unassigned) [Example 186, 2-isobutyramido-N-(1-(6-(3,3,3-trifluoropropoxy)pyridin-3-yl)ethyl)isonicotinamide] stands under 1000 nM; under `COc1cc(C(C)NC(=O)c2cc(C)nc(NC(=O)C3CC3)n2)cnc1OCC(F)(F)F` (single isomer, unassigned) [Example 194, 2-(cyclopropanecarboxamido)-N-(1-(5-methoxy-6-(2,2,2-trifluoroethoxy)pyridin-3-yl)ethyl)-6-methylpyrimidine-4-carboxamide], under 1000 nM. The same measure for `CCC(=O)Nc1nccc(C(=O)NC(C)c2cnc(OCC(F)(F)F)c(Cl)c2)n1` (single isomer, unassigned) [Example 210, N-(1-(5-chloro-6-(2,2,2-trifluoroethoxy)pyridin-3-yl)ethyl)-2-propionamidopyrimidine-4-carboxamide]: under 1000 nM.

Consider `CC(NC(=O)c1ccnc(NC(=O)C2CC2)n1)c1cnc(OCC(F)(F)F)c(Cl)c1` (single isomer, unassigned) [Example 211, N-(1-(5-chloro-6-(2,2,2-trifluoroethoxy)pyridin-3-yl)ethyl)-2-(cyclopropanecarboxamido)pyrimidine-4-carboxamide], for which the concentration for half-maximal inhibition (IC50) was under 1000 nM.

The values are drawn from patent US9302991B2, “Arylamide derivatives as TTX-S blockers” (RaQualia Pharma Inc., priority 2010, dated 2016).
